Drawing on PMC6691133, “Targeting PFKFB3 alleviates cerebral ischemia-reperfusion injury in mice” (Scientific Reports, 2019), this text covers IC50 for one molecule.

The target in the assay is T1, 6-phosphofructo-2-kinase/fructose-2,6-bisphosphatase-3 (PFKFB3) (Homo sapiens, UniProt Q16875).
T1 construct: Recombinant full length human PFKFB3 protein purified from Sf9 baculoviral system
The experiment in a line: ADP-Glo kinase assay with recombinant PFKFB3 (ATP + F6P). It counts as biochemical. (ADP-Glo turns the ADP formed in a reaction into a luminescent signal.)

T1 sequence (Q16875 whole entry): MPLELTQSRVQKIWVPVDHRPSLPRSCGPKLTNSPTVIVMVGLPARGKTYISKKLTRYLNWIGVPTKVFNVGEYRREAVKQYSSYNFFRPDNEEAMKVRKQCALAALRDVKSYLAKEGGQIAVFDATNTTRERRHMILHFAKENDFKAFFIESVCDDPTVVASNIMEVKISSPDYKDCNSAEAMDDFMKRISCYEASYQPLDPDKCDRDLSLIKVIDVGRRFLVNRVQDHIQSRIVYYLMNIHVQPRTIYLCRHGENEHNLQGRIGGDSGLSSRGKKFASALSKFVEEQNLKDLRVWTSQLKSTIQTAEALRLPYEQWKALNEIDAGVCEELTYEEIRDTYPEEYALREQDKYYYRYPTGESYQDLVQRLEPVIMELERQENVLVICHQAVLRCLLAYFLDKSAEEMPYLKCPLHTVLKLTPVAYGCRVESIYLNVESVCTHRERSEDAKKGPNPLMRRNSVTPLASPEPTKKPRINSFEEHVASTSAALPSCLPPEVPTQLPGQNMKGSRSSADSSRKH

For the molecule `Cc1noc(C)c1Cn1cc(C#N)c2cc(Oc3ccc(NC(=O)[C@@H]4CCCN4)cc3)ccc21` [AZ67], the 50% inhibitory concentration (IC50) (as a rule, the midpoint of a concentration-inhibition curve) is 0.018 µM.
